Source: PMC8539251, “Peimine, an Anti-Inflammatory Compound from Chinese Herbal Extracts, Modulates Muscle-Type Nicotinic Receptors” (International Journal of Molecular Sciences, 2021)

Key:
[1] = molecular target: T1, muscle-type nicotinic acetylcholine receptor (nAChR) (Torpedo marmorata, UniProt P02711+Q6S3H8+Q6S3H9+Q6S3I0); experiment: two-electrode voltage clamp in Xenopus oocytes, agonist concentration-response; assay type: cell-based
T1 construct: gene CHRNA1; purified native nAChR reconstituted in asolectin lipids, microtransplanted to Xenopus oocytes; with β1, γ and δ nAChR subunits (heteropentamer 2α1, β1, δ, γ)

[2] = molecular target: T1, muscle-type nicotinic acetylcholine receptor (nAChR); experiment: two-electrode voltage clamp in Xenopus oocytes, inhibition of […] ACh-elicited currents (peak; steady-state IC50 […]); assay type: cell-based

T1 sequence (P02711 25-461): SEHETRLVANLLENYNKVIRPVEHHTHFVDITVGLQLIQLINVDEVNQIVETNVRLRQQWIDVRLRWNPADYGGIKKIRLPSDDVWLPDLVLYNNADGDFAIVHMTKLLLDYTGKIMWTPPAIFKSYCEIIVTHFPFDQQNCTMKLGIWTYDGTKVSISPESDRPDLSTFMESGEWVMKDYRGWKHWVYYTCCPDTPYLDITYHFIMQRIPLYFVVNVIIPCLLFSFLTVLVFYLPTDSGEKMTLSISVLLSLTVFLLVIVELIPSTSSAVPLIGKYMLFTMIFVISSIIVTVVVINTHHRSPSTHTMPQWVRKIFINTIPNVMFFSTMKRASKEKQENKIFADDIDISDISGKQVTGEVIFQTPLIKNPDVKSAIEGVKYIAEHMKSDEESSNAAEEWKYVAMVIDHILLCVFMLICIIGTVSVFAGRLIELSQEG
T1 sequence (Q6S3I0 25-493): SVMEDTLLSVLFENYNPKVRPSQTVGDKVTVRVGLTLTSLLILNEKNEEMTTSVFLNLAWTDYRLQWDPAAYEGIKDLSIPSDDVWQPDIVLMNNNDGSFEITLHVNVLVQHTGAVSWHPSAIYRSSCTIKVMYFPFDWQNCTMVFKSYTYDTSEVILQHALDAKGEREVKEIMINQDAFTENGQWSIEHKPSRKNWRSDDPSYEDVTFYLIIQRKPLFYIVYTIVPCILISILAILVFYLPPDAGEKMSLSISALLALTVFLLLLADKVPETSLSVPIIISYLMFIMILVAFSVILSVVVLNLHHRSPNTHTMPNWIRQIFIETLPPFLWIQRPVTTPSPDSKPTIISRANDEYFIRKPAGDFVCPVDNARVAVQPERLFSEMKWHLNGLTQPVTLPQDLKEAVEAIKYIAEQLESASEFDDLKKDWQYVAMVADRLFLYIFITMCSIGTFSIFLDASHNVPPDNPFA
T1 sequence (Q6S3H9 18-505): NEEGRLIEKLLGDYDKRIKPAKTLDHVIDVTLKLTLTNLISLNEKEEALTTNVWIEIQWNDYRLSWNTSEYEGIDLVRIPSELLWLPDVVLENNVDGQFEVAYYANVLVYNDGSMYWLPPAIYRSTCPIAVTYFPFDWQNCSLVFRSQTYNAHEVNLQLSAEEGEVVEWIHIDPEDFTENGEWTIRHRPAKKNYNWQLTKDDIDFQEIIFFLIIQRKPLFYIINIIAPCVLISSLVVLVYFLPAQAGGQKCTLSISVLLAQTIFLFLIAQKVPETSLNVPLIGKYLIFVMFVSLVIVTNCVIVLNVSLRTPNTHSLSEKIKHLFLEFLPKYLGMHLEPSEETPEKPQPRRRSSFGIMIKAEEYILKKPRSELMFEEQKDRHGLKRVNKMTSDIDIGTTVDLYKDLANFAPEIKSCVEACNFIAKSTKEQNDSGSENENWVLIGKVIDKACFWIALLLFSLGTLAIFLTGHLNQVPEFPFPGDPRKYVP
T1 sequence (Q6S3H8 22-522): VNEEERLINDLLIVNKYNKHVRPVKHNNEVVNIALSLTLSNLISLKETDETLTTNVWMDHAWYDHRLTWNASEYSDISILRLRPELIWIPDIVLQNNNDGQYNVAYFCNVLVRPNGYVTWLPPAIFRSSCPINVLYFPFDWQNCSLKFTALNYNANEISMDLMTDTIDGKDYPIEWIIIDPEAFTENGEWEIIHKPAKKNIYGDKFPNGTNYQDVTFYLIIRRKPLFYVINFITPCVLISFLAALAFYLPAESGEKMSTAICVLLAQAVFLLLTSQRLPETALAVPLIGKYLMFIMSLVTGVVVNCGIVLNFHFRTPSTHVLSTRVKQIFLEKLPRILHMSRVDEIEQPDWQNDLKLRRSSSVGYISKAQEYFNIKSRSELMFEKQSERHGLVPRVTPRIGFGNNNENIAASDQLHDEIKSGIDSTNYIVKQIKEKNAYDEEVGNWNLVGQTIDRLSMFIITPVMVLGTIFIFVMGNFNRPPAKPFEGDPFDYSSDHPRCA

Compound | EC50 [1] | IC50 [2]
CC(=O)OCC[N+](C)(C)C [ACh, acetylcholine] | 31 µM | –
C[C@H]1CC[C@@H]2N(C1)C[C@H]1[C@@H]3C[C@H]4[C@@H](C[C@H](O)[C@H]5C[C@@H](O)CC[C@@]54C)[C@@H]3CC[C@@H]1[C@]2(C)O [Pm, Peimine] | – | 2.9 µM
